Where a name gives a salt, the structure may show the parent alone. Read-outs that look alike come from different tables or passages of the source. Blank lines part the entries; values can stand above or below the molecule they belong to.
What was measured:
[1] = system: non-insulin-dependent diabetes induced in rats by Streptozotocin; test: Antidiabetic activity in the Nostz rat (non-insulin-dependent diabetes induced by neonatal streptozotocin), glycaemia after oral treatment; format: in vivo; conditions: diabetic rats, blood 2 h after last administration; for change in vivo at 20 mg/kg: 20 mg/kg/D oral; for change in vivo at 200 mg/kg: 200 mg/kg/D oral
Method: Study of the Antidiabetic Activity in the Nostz Rat
The antidiabetic activity of the compounds of formula (I) administered orally was determined on an experimental model of non-insulin-dependent diabetes induced in rats by Streptozotocin.
The non-insulin-dependent diabetes model is obtained in rats by neonatal injection (on the day of birth) of streptozotocin.
The diabetic rats used were 8 weeks old. The animals were kept, from the day of their birth to the day of the experiment, in an animal house at a controlled temperature of 21 to 22° C. and subjected to a fixed cycle of light (from 7 am to 7 pm) and darkness (from 7 pm to 7 am). Their diet consisted of a maintenance diet, water and food were provided “ab libitum”, with the exception of the 2 hours of fasting preceding the tests when the food is withdrawn (postabsorptive state).
The rats were treated by the oral route for one (D1) or four (D4) days with the product to be tested. Two hours after the last administration of the product and 30 minutes after anaesthetizing the animals with sodium pentobarbital (Nembutal a), 300 μl of blood sample are collected from the end of the tail.
By way of example, results obtained are assembled in Table III.

[2] = system: Maillard reaction of bovine albumin with methylglyoxal; test: Antiglycation activity: fructosamine assay after incubation of albumin with methylglyoxal; format: biochemical; conditions: compound 10 mM, bovine albumin 6.6 mg/ml, 1 mM methylglyoxal, pH 7.4, 37° C., 6 days; relative to incubation without compound
Method: Study of the Antiglycation Activity
The compounds (I) are also capable of inhibiting the so-called Maillard reactions by “capturing effect” on the α-dicarbonyl-containing derivatives such as glyoxal—this is the antiglycation effect. This Maillard reaction inhibiting effect of the compounds according to the invention was studied in vitro by assaying ketamines (“fructosamines”) produced during the incubation of albumin with methylglyoxal in the presence or otherwise of a compound of formula (I) according to the invention.
A solution of bovine albumin at 6.6 mg/ml in 0.2 M phosphate buffer, pH 7.4, is incubated with 1 mM methylglyoxal in the presence or otherwise of a compound according to the invention at a concentration of 10 mM. The incubation is carried out under sterile conditions at 37° C. for 6 days. At the end of the incubation period, the quantity of ketamines is measure with a commercially available fructosamine assay kit (“FRA” kit, product reference: 0757055, Roche S. A. products) according to the manufacturer's instructions.
By way of example, results obtained under these experimental conditions are assembled in Table IV: level of fructosamine after incubation of the albumin with the methylglyoxal in the presence of compounds (I) according to the invention in relation to the level of fructosamine when albumin is incubated with methylglyoxal in the absence of the compounds (I) according to the invention.

[3] = 24 h, 1 day of treatment, read-out: percentage variation of glycaemia at D1 relative to D0
[4] = 96 h, 4 days of treatment, read-out: percentage variation of glycaemia at D4 relative to D0

SMILES: CCC1N=C(N)NC(N(C)C)=N1 (stereo not drawn) [Compound 1, 2-amino-3,6-dihydro-4-dimethylamino-6-ethyl-1,3,5-triazine hydrochloride]
change in vivo at 20 mg/kg [1, 3]: -7% | change in vivo at 200 mg/kg [1, 3]: -13% | change in vivo at 20 mg/kg [1, 4]: -2% | change in vivo at 200 mg/kg [1, 4]: -15% | Reduction in the level of fructosamines (%) [2]: 62%

SMILES: CN(C)C1=NC(c2ccccc2)N=C(N)N1 (stereo not drawn) [Compound 10]
Reduction in the level of fructosamines (%) [2]: 80%

SMILES: COc1ccc(C2N=C(N)NC(N(C)C)=N2)cc1 (stereo not drawn) [Compound 11]
Reduction in the level of fructosamines (%) [2]: 89%

SMILES: CN(C)C1=NC(c2ccc(O)cc2)N=C(N)N1 (stereo not drawn) [Compound 12]
Reduction in the level of fructosamines (%) [2]: 90%

melting point: > 260 °C
SMILES: CN(C)C1=NC(c2ccc(O)cc2)N=C(N)N1 (stereo not drawn) [Compound 13]
Reduction in the level of fructosamines (%) [2]: 95%

SMILES: CC1N=C(N)NC(N(C)C)=N1 (stereo not drawn) [Compound 18]
change in vivo at 20 mg/kg [1, 3]: -6% | change in vivo at 200 mg/kg [1, 3]: -29% | change in vivo at 20 mg/kg [1, 4]: -4% | change in vivo at 200 mg/kg [1, 4]: -28% | Reduction in the level of fructosamines (%) [2]: 69%

SMILES: CN(C)C1=NCN=C(N)N1 [Compound 33]
change in vivo at 20 mg/kg [1, 3]: -7% | change in vivo at 200 mg/kg [1, 3]: -9% | change in vivo at 20 mg/kg [1, 4]: -6% | change in vivo at 200 mg/kg [1, 4]: -14% | Reduction in the level of fructosamines (%) [2]: 79%

SMILES: CN(C)C1=NC(C2CCCCC2)N=C(N)N1 (stereo not drawn) [Compound 34]
change in vivo at 20 mg/kg [1, 3]: -5% | change in vivo at 200 mg/kg [1, 3]: -6% | change in vivo at 20 mg/kg [1, 4]: -15% | change in vivo at 200 mg/kg [1, 4]: -21% | Reduction in the level of fructosamines (%) [2]: 64%

SMILES: CN(C)C1=NC(C(F)(F)F)N=C(N)N1 (stereo not drawn) [Compound 36]
Reduction in the level of fructosamines (%) [2]: 66%

SMILES: CN(C)C1=NC(Cc2ccccc2)N=C(N)N1 (stereo not drawn) [Compound 37]
change in vivo at 20 mg/kg [1, 3]: -7% | change in vivo at 200 mg/kg [1, 3]: -10% | change in vivo at 20 mg/kg [1, 4]: -8% | change in vivo at 200 mg/kg [1, 4]: -15% | Reduction in the level of fructosamines (%) [2]: 65%

SMILES: CN(C)C1=NC(c2ccco2)N=C(N)N1 (stereo not drawn) [Compound 40]
change in vivo at 20 mg/kg [1, 3]: -8% | change in vivo at 200 mg/kg [1, 3]: -18% | change in vivo at 20 mg/kg [1, 4]: -12% | change in vivo at 200 mg/kg [1, 4]: -18% | Reduction in the level of fructosamines (%) [2]: 66%

SMILES: CC(C)CC1N=C(N)NC(N(C)C)=N1 (stereo not drawn) [Compound 43]
change in vivo at 20 mg/kg [1, 3]: -4% | change in vivo at 200 mg/kg [1, 3]: -12% | change in vivo at 20 mg/kg [1, 4]: -16% | change in vivo at 200 mg/kg [1, 4]: -17% | Reduction in the level of fructosamines (%) [2]: 68%

SMILES: CN(C)C1=NC(C2CC=CCC2)N=C(N)N1 (stereo not drawn) [Compound 45]
Reduction in the level of fructosamines (%) [2]: 67%

Reference: US7767676B2, “Dihydro-1,3,5-triazine amine derivatives and their therapeutic uses” (Merck Sante, priority 2000, dated 2010)
